Laboratory results published in patent US20130281313A1, “PROGNOSTIC AND/OR PREDICTIVE BIOMARKERS AND BIOLOGICAL APPLICATIONS THEREOF” (INSTITUT GUSTAVE ROUSSY, priority 2010, published 2013).

Tests used:
A549 cells [1] = experiment: Cytofluorometric assessment of cell death (DiOC6(3)/PI co-staining); format: cell-based, human; details: A549 cells, followed by CDDP; DiOC6(3)/PI co-staining
Protocol: Unless otherwise specified, chemicals were purchased from Sigma-Aldrich (St. Louis, USA), culture media and supplements for cell culture from Gibco-Invitrogen (Carlsbad, USA) and plasticware from Corning (Corning, USA). […] Orlistat (Xenical®) was obtained from Roche (Basel, Switzerland). […] Undissolved material was removed by two sequential rounds of centrifugation at 12,000 G (5 min, room temperature, RT), supernatants were collected and stored at −80° C. under protection from light until use. In low-throughput experiments, all cell lines were treated with 2.5 mM pyridoxine (PN), exception made for A549 cells that received 5 mM PN.
To avoid depleting the siRNA library of selected sequences, siRNAs for validation experiments were purchased as custom molecules from Sigma-Aldrich. For low-throughput experiments, (see below for the transfection protocols employed in the siRNA screen), siRNA were transfected in A549 cells with Oligofectamine™ reagent (Invitrogen), following the manufacturer's instructions. Transfection with a non-targeting siRNA (siUNR) was employed as a negative control condition. Forty-eight hours after transfection, siRNA-mediated target downregulation was assessed by immunoblotting (see below).
All cytofluorometric determinations were carried out a FACSCalibur or a FACScan cytofluorometer (BD Biosciences, San Jose, USA) equipped with a 70 μm nozzle.
First line statistical analysis of cytofluorometric results was performed by using the CellQuest™ software (BD Biosciences), by gating on the events characterized by normal forward scatter and side scatter parameters. Apoptosis- and cell cycle-related data were further analyzed with Microsoft Excel (Microsoft Co., Redmond, USA) and statistical significance was assessed by means of two-tailed Student's t test (p<0.05).

A549 cells [2] = experiment: Transcriptome studies (mRNA microarrays); format: cell-based, human
Protocol: NSCLC A549 cells were treated with 100 μM CDDP, 75 μM C2-CER or 100 μM CdCl2 for 12 h, or with 50 μM CDDP, C2-CER or CdCl2 for 24 h. Thereafter, cells were collected and lysed for RNA extraction of following established procedures {de La Motte Rouge, 2007}. mRNA expression changes were quantified on G4112A 44 k Whole Human Genome Oligo Microarrays (Agilent Technologies, Santa Clara, USA), as previously reported {Castedo, 2006}. mRNA microarrays underwent standardized post-hybridization processing, image acquisition and analysis (see below) {Castedo, 2006}.
Data from microarray experiments were analyzed with the Rosetta Resolver® System (Rosetta Biosoftware, Seattle, USA). The threshold for statistical significance of probe signals (Intensity) was set at p=10^−5. […] For each mRNA, fold change (FC) was then defined as Intensitysample/Intensitycontrol when Intensitysample>Intensitycontrol, or as—(Intensitycontrol/Intensitysample) when Intensitysample<Intensitycontrol. Ratios were calculated as Intensitysample/Intensitycontrol.

[3] = 12 h, 100 μM CDDP, 75 μM C2-CER or 100 μM CdCl2, vs untreated cells
[4] = 24 h, 50 μM CDDP, C2-CER or CdCl2, vs untreated cells

CCCCCCCCCCCCCCC(Br)C(=O)O (stereo not drawn) [2-bromopalmitate]
epistatic interaction on CDDP-induced cell death, ZDHHC9 inhibition (2-bromopalmitate) combined with IL6R blockade (extracellular antibody) (A549 cells [1]): no significant epistatic interaction

CCCCCCCCCCCCC/C=C/[C@@H](O)[C@H](CO)NC(C)=O [C2-CER, C2-ceramide]
Fold change, ADAR (NM_001111) transcript (A549 cells [2]; [3]): n.s.
Fold change, ALDH7AT (NM_001182) transcript (A549 cells [2]; [3]): −1.85
Fold change, CD151 (NM_004357) transcript (A549 cells [2]; [3]): n.s.
Fold change, CLIC1 (NM_001288) transcript (A549 cells [2]; [3]): n.s.
Fold change, COMMO9 (NM_014186) transcript (A549 cells [2]; [3]): n.s.
Fold change, COX5B (NM_001802) transcript (A549 cells [2]; [3]): −1.62
Fold change, COX7C (NM_001867) transcript (A549 cells [2]; [3]): −1.33
Fold change, DHRSX (NM_145177) transcript (A549 cells [2]; [3]): n.s.
Fold change, EBP (NM_006579) transcript (A549 cells [2]; [3]): −2.80
Fold change, EEF2 (NM_001901) transcript (A549 cells [2]; [3]): 2.31
Fold change, FDXK (NM_003681) transcript (A549 cells [2]; [3]): −1.89
Fold change, FN3KRP (NM_024619) transcript (A549 cells [2]; [3]): −1.35
Fold change, HDLBP (NM_005336) transcript (A549 cells [2]; [3]): 1.69
Fold change, HGD (NM_000187) transcript (A549 cells [2]; [3]): −2.15
Fold change, IL6R (NM_000565) transcript (A549 cells [2]; [3]): 2.94
Fold change, KHSRP (NM_003685) transcript (A549 cells [2]; [3]): −2.29
Fold change, LOC389727 (NM_372092) transcript (A549 cells [2]; [3]): n.s.
Fold change, MAT2A (NM_005911) transcript (A549 cells [2]; [3]): −3.47
Fold change, MOL1 (NM_021960) transcript (A549 cells [2]; [3]): −1.35
Fold change, MPP6 (NM_016447) transcript (A549 cells [2]; [3]): n.s.
Fold change, OSTCL (NM_145303) transcript (A549 cells [2]; [3]): 2.25
Fold change, P5MC5 (NM_002805) transcript (A549 cells [2]; [3]): −2.20
Fold change, PLK1S1 (NM_018474) transcript (A549 cells [2]; [3]): 1.99
Fold change, PPM1J (NM_005167) transcript (A549 cells [2]; [3]): n.s.
Fold change, RNF26 (NM_032015) transcript (A549 cells [2]; [3]): n.s.
Fold change, RRAD (NM_004185) transcript (A549 cells [2]; [3]): n.s.
Fold change, SEMA3G (NM_000379) transcript (A549 cells [2]; [3]): n.s.
Fold change, SLC22A16AS (NM_007105) transcript (A549 cells [2]; [3]): −1.40
Fold change, SOCS6 (NM_004232) transcript (A549 cells [2]; [3]): n.s.
Fold change, TMED1 (NM_006858) transcript (A549 cells [2]; [3]): n.s.
Fold change, TRIP4 (NM_016213) transcript (A549 cells [2]; [3]): 1.83
Fold change, UBE2L3 (NM_003347) transcript (A549 cells [2]; [3]): −1.48
Fold change, UBE21 (NM_014176) transcript (A549 cells [2]; [3]): −2.92
Fold change, W282 (NM_018029) transcript (A549 cells [2]; [3]): n.s.
Fold change, ADAR (NM_001111) transcript (A549 cells [2]; [4]): −1.45
Fold change, ALDH7AT (NM_001182) transcript (A549 cells [2]; [4]): −1.98
Fold change, CD151 (NM_004357) transcript (A549 cells [2]; [4]): n.s.
Fold change, CLIC1 (NM_001288) transcript (A549 cells [2]; [4]): n.s.
Fold change, COMMO9 (NM_014186) transcript (A549 cells [2]; [4]): n.s.
Fold change, COX5B (NM_001802) transcript (A549 cells [2]; [4]): −1.61
Fold change, COX7C (NM_001867) transcript (A549 cells [2]; [4]): n.s.
Fold change, DHRSX (NM_145177) transcript (A549 cells [2]; [4]): n.s.
Fold change, EBP (NM_006579) transcript (A549 cells [2]; [4]): −3.16
Fold change, EEF2 (NM_001901) transcript (A549 cells [2]; [4]): 2.62
Fold change, FDXK (NM_003681) transcript (A549 cells [2]; [4]): −1.91
Fold change, FN3KRP (NM_024619) transcript (A549 cells [2]; [4]): −1.67
Fold change, HDLBP (NM_005336) transcript (A549 cells [2]; [4]): 1.99
Fold change, HGD (NM_000187) transcript (A549 cells [2]; [4]): −4.23
Fold change, IL6R (NM_000565) transcript (A549 cells [2]; [4]): 3.52
Fold change, KHSRP (NM_003685) transcript (A549 cells [2]; [4]): −2.23
Fold change, LOC389727 (NM_372092) transcript (A549 cells [2]; [4]): n.s.
Fold change, MAT2A (NM_005911) transcript (A549 cells [2]; [4]): −2.96
Fold change, MOL1 (NM_021960) transcript (A549 cells [2]; [4]): −1.58
Fold change, MPP6 (NM_016447) transcript (A549 cells [2]; [4]): n.s.
Fold change, OSTCL (NM_145303) transcript (A549 cells [2]; [4]): 3.08
Fold change, P5MC5 (NM_002805) transcript (A549 cells [2]; [4]): −2.27
Fold change, PLK1S1 (NM_018474) transcript (A549 cells [2]; [4]): 1.93
Fold change, PPM1J (NM_005167) transcript (A549 cells [2]; [4]): n.s.
Fold change, RNF26 (NM_032015) transcript (A549 cells [2]; [4]): −2.11
Fold change, RRAD (NM_004185) transcript (A549 cells [2]; [4]): 1.55
Fold change, SEMA3G (NM_000379) transcript (A549 cells [2]; [4]): n.s.
Fold change, SLC22A16AS (NM_007105) transcript (A549 cells [2]; [4]): −1.60
Fold change, SOCS6 (NM_004232) transcript (A549 cells [2]; [4]): n.s.
Fold change, TMED1 (NM_006858) transcript (A549 cells [2]; [4]): n.s.
Fold change, TRIP4 (NM_016213) transcript (A549 cells [2]; [4]): 1.65
Fold change, UBE2L3 (NM_003347) transcript (A549 cells [2]; [4]): −1.47
Fold change, UBE21 (NM_014176) transcript (A549 cells [2]; [4]): −4.38
Fold change, W282 (NM_018029) transcript (A549 cells [2]; [4]): n.s.
